Laboratory results reported in patent US10231908B2, “Method of reducing hair loss associated with chemotherapy” (Galderma S.A., priority 2015, dated 2019).
“Also recorded” adds a separate entry of the source. Counter-ions that a name gives are not always drawn.

Experiments:
[1] = system: cyclophosphamide-induced alopecia in C57B16 mice; test: Cyclophosphamide-induced alopecia in mice after anagen induction by depilation; assay type: in vivo; conditions: for % of alopecia versus control: read on day 15
[2] = epinephrine 450 mM topical plus CYP at day 9

| SMILES | % of alopecia versus control ([1]; brimonidine 35 mM (1%) topical, 100 μL, at t-2 hours and repeated 2 hours later, CYP 120 mg/kg i.p. at day 9) | hair shedding in dorsal depilated area (representative pictures) ([1]; topical brimonidine, CYP-injected mice, day 15 after depilation) | % of alopecia versus control ([1]; epinephrine 450 mM topical, 20 min before and 10, 40 and 60 min after CYP 120 mg/kg i.p. at day 9, hydrochloride) | body weight of mice [2] |
| --- | --- | --- | --- | --- |
| Brc1c(NC2=NCCN2)ccc2nccnc12 [Brimonidine, Brimonidine tartrate] | prevents alopecia; also recorded: prevented hair loss | more hairs did not shed | – | – |
| CNC[C@H](O)c1ccc(O)c(O)c1 [Epinephrine, Epinephrine hydrochloride] | – | – | worsened it; also recorded: worsened alopecia | temporarily decreased the body weight |
